Experimental data published in patent publication EP4711361A1, “NITROGEN-CONTAINING HETEROCYCLIC COMPOUND AND USE THEREOF” (Jiangsu Deyuan Pharmaceutical Co.,Ltd., priority 2023, dated 2024).

Columns and labels:
human CYP11B2 = molecular target: T1, human CYP11B2 (Homo sapiens, UniProt P19099); experiment: In vitro activity assay of monoclonal cells overexpressing human CYP11B2; type: cell-based; details: G402 cells overexpressing human CYP11B2; 1 µM 11-deoxycorticosterone, 16 hours; aldosterone by LC-MS/MS
T1 construct: expressed in transfected cells; host or cells: human renal leiomyoma G402 cells (monoclonal)
T1 sequence (P19099 25-503): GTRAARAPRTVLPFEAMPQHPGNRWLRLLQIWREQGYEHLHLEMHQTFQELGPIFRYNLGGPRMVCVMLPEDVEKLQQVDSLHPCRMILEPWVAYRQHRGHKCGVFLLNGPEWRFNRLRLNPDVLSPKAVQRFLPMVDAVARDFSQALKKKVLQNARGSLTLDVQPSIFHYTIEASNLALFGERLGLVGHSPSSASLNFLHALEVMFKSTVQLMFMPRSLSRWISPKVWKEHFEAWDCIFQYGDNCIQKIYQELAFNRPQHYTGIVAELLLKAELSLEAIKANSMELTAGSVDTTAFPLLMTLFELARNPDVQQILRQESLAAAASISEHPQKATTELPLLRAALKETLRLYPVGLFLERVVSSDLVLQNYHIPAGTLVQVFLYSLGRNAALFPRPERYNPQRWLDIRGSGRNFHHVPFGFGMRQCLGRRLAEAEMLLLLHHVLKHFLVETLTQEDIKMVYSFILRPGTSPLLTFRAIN
Procedure: The human renal leiomyoma G402 cell line overexpressing human CYP11B2 was selected to serve as a compound activity screening system. Table 1: Cell and reagent information
2) Compound details: The test compound was prepared as a 10 µM working concentration using DMSO. 3) Experimental procedure
Day 1: Cells were digested, and human renal leiomyoma G402 cells overexpressing human CYP11B2 were resuspended to 1×10^5 cells/mL, with 100 µL seeded into a 96-well plate.
(§1) Day 3: The cell supernatant was collected and added to 200 µL of a methanol solution containing internal standards (internal standards: 35 ng/mL ketoprofen or 7.5 ng/mL carbamazepine or 5 ng/mL diphenhydramine or 10 ng/mL tolbutamide). The mixture was vortexed and centrifuged (4000×g, 4°C, 5 minutes). Then, 100 µL of the supernatant was taken and mixed with 100 µL of pure water.
Ratio = Aldosterone peak area/Internal standard peak area [formula] Control activity% = (Ratiotestcompound/RatioDMSO) × 100% [formula]
(§2) "Ratio test compound" represents the Ratio values at different concentrations of the test compound.
(§3) "Ratio DMSO" represents the Ratio value without the addition of the test compound. • X = Log (compound concentration) • Y = Control activity%
The IC50 of the test compound was determined by fitting to a nonlinear regression equation using XLfit 5.5.0. Table 3: Results for in vitro activity assay of monoclonal cells overexpressing human CYP11B2

human CYP11B1 = molecular target: T2, human CYP11B1 (Homo sapiens, UniProt P15538); experiment: In vitro activity assay of monoclonal cells overexpressing human CYP11B1; type: cell-based; details: G402 cells overexpressing human CYP11B1; 1 µM 11-deoxycortisol, 16 hours; cortisol by LC-MS/MS
T2 construct: expressed in transfected cells; host or cells: human renal leiomyoma G402 cells (monoclonal)
T2 sequence (P15538 25-503): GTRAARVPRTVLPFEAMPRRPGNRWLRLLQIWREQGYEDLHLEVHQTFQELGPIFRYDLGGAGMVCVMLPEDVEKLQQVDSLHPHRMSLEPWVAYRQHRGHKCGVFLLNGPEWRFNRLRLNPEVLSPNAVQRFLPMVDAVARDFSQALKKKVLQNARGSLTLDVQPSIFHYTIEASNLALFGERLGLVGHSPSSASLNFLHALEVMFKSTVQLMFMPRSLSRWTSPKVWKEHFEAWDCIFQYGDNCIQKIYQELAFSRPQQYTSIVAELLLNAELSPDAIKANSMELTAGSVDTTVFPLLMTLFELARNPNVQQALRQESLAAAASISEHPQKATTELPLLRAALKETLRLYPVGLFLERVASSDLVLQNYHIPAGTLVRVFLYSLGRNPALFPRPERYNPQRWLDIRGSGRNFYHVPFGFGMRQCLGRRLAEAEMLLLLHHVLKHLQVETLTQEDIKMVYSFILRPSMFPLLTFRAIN
Procedure: The human renal leiomyoma G402 cell line overexpressing human CYP11B1 was selected to serve as a compound selectivity screening system.
Day 1: Cells were digested, and human renal leiomyoma G402 cells overexpressing CYP11B1 were resuspended to 1×10^5 cells/mL, with 100 µL seeded into a 96-well plate.
as §1
Ratio = Cortisol peak area/Internal standard peak area [formula] Control activity% = (Ratiotestcompound/RatioDMSO) × 100% [formula]
as §2, §3
The IC50 of the test compound was determined by fitting to a nonlinear regression equation using XLfit 5.5.0. Table 4: Results for in vitro activity assay of monoclonal cells overexpressing human CYP11B1

[1] = Permeability test (MDR1-MDCKII monolayer, bidirectional transport); type: in vitro ADME; details: dog
Procedure: Experimental objective: The permeability and efflux ratio of the compound of the present disclosure were determined using the MDR1-MDCKII monolayer cell model to assess its membrane permeability and potential for P-gp-mediated efflux transport.
Experimental protocol: MDR1-MDCKII cells (obtained from the Netherlands Cancer Institute) were seeded in 96-well plates (obtained from Corning) at a cell density of 3.33 × 10^5 cells/mL and cultured for 4 to 7 days to form confluent cell monolayers. Hank's balanced salt solution containing 10 mM HEPES (pH 7.40) was used as the transport buffer. The test compound was evaluated for bidirectional transport at a concentration of 2 µM, with the DMSO concentration in the incubation system maintained below 1%. After adding the samples, the cell plate was incubated at 37±1°C, 5% CO2, and saturated humidity for 2.5 hours. All samples were quantitatively analyzed using the LC-MS/MS method. The apparent permeability coefficient (Papp, cm/s) and efflux ratio (ER) were calculated using the following formula. Apparent permeability coefficient (Papp, cm/s) was calculated using the following formula: Papp = (dCr/dt) x Vr / (A x C0). Herein, dCr/dt represents the cumulative concentration of the compound at the receiving end per unit time (µM/s); Vr is the volume of the solution at the receiving end (with solution volumes at the apical and basolateral ends being 0.075 mL and 0.250 mL, respectively); A is the relative surface area of the cell monolayer (0.143 cm^2); C0 is the initial concentration of the test substance at the dosing end (µM) or the peak area ratio of the reference substance. The efflux ratio was calculated using the following formula: ER = Papp (BA)/ Papp (AB). Table 7: Permeability test results of compounds

in vivo = details: cynomolgus monkey, po, 3 mg/kg
in vitro [2] = details: human, microsomes
in vitro [3] = details: rat, plasma
in vitro [4] = details: cynomolgus monkey, plasma
in vitro [5] = details: human, plasma

CCC(=O)NC1CCCc2c(-c3cc4ccc(=O)n(C)c4cc3F)cncc21 (single isomer, unassigned) [Compound 019]
IC50 (human CYP11B2): 17.3 nM
IC50 (human CYP11B1): 1680 nM
efflux ratio at 2.5 h, 2 µM ([1]; MDCK-MDR1, pH 7.4, ER = Papp (BA)/ Papp (AB)): 1.55
Papp A→B at 2.5 h, 2 µM ([1]; MDCK-MDR1, pH 7.4, pH 7.40, 2.5 hours, A to B, read-out: Apparent permeability coefficient (Papp (AB), 10^-6 cm/s)): 21.5 ×10⁻⁶ cm/s
AUC(0-t) at 24 h (in vivo): 23.9 µM·h
Cmax (in vivo): 3.79 µM
bioavailability (in vivo): 113%
half-life (in vivo): 4.65 h
CLint scaled at 1 µM (in vitro [2]): < 8.6 mL/min/kg
fraction unbound at 4 h, 2 µM (in vitro [3]): 0.129
fraction unbound at 4 h, 2 µM (in vitro [4]): 0.248
fraction unbound at 4 h, 2 µM (in vitro [5]): 0.238
